The values that follow come from publication PMC4741700 (Oncotarget, 2015).

Where two headings read alike, the source gives them in different places.

For one assay, the system named is primary myeloma explants. The assay can be described thus: Primary myeloma explant viability. The format is cell-based. As to conditions: for sensitivity of primary myeloma cells: 3 days in culture. As to the method: (§1) Figure 6 Susceptibilities of multiple myeloma cell lines and primary explants to SBI compounds A. Cell lines. The indicated human myeloma cell lines were treated with the indicated compounds for 3 days at which point the total viable cell count was determined using the Cell Titer Glo assay method. Shown are the IC50 values that were calculated from standard 10-point dose-response curves (Supplementary Figure 3). B. Primary myeloma explants. Myeloma cells were purified from bone marrow aspirates and maintained in culture for 3 days in the presence of varying concentrations of the indicated compounds [86] IC50 values were calculated from dose-response curves (Supplementary Figure 4).
(§2) Cell lines were propagated in RPMI medium or Dulbecco's modified Eagle's minimal essential medium (D-MEM), containing 10% fetal bovine serum, 100 units/mL penicillin G and 100 μg/mL streptomycin. Proliferation and viability assays, cells were performed in 96 well plates in the presence of serial dilutions of compounds. Relative cell numbers and viability were determined 2-4 days later using MTT or CellTiter Glo (Promega, Inc. Madison, WI) assays as previously described.
Primary myeloma samples were obtained from the Norwegian Myeloma Biobank after obtaining approval from the Regional Ethics Committee.

Assay [1] concerns N-Myc protein in SK-N-BE(2) cells. The assay can be described thus: N-Myc protein immunoblot in neuroblastoma cells. It is filed as cell-based, human. The note with it: within 24 hr. The protocol: As positive and negative controls, respectively, parallel cultures were exposed to 60 μM 10058-F4 (+) or to DMSO vehicle only. B. SK-N-BE(2) cells treated as described in A were fixed and stained with Oil Red O to delineate lipid droplets. C. SK-N-BE(2) cells were exposed to the indicated amounts of Myc inhibitors for 5 days either in the concurrent absence or presence of nerve growth factor (NGF: 50 ng/ml). Typical fields of unfixed cells were then photographed. Note the presence of longer and more numerous neurite outgrowths in cells exposed to Myc inhibitors (arrows).
Immunoblotting was performed as previously described. Antibodies included a mouse mAb against human Myc (1:500 dilution: Clone 9E10, Santa Cruz Biotechnology, Inc. Santa Cruz, CA), a mouse mAb against β−actin (1:10,000 dilution: cat. no.3700S Cell Signaling Technology, Inc. Beverly, MA), a mouse mAb against AMPK (1:1000 dilution: catalog no. 2532, Cell Signaling Technology) and a rabbit polyclonal antibody against AMPK phospho-Thr172 (1:1000 dilution, catalog no.2535, Cell Signaling Technologies).
A general note: Immunoblotting shows a protein as a band on a membrane.

For the next assay, the system named is human myeloma cell lines. The assay can be described thus: Myeloma cell line viability, Cell Titer Glo. It is filed as cell-based. As to conditions: for differential susceptibilities among myeloma cell lines: discounting U266. As to the method:
as §1, §2

In assay [2] the test system is Daudi Burkitt lymphoma cell line. The assay can be described thus: Proliferation inhibition of Daudi cells. It is filed as cell-based. As to conditions: Homo sapiens. The protocol: as §2
The subject of assay [3] is HL60 promyelocytic leukemia cell line. The assay can be described thus: Proliferation inhibition of HL60 cells. The note with it: Homo sapiens, HL-60. It is filed as cell-based. As to the method:
as §2

A further assay deals with Myc-Max(S) heterodimers (Homo sapiens, UniProt P01106+P61244). Kind of assay: EMSA, DNA binding by Myc-Max(S) heterodimers. As to conditions: for fold more potent than celastrol: EMSA Myc-Max(S). It is filed as biochemical. The text has this: B. Formation of a typical Michael adduct with cysteine as an example (depicted in blue) is shown. […] C. […] Recombinant Myc bHLH-ZIP domain (residues 353-437), and full-length Max(S) and Max(L) were used for EMSAs along with a HEX-tagged, double-stranded oligonucleotide containing a Myc binding E-box element (CACGTG). Max(S) is the 151 residue isoform that homodimerizes efficiently but only binds DNA as a heterodimer in association with Myc. The 160 residue isoform, termed Max(L), that does bind DNA as a homodimer and that closely mimics the Myc-Max(S) association was used as a control. D. Graphical representation of EMSA results from triplicate assays performed as described in C.
Sequence of Myc-Max(S) heterodimers (P01106 368-452 limits assumed): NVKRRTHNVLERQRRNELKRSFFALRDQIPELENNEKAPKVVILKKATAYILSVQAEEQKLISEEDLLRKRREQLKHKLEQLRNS
Sequence of Myc-Max(S) heterodimers (P61244 1-151 isoform P61244-2): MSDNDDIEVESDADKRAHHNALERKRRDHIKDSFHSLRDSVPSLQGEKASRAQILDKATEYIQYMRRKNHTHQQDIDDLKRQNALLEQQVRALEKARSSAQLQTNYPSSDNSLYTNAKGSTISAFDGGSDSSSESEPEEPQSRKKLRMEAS
(§3) The 83 residue His6-tagged Myc bHLH-ZIP domain (amino acids […]), and full-length His6-tagged Max(S) and His6-tagged Max(L) were expressed and purified as previously described. 20 nmol each of Myc and Max(S) or 40 ng of Max(L) were used for EMSA assays that included 30 nmol of a (HEX)-tagged double-stranded E-box-containing oligonucleotide (IDT, Coralville, IA, USA). Importantly, the Myc protein excluded the two C-terminal amino acids (Cys438 and Ala439) from the final sequence, thus eliminating a potential reaction site for quinone methide-containing triterpenoids.
In general terms: Mobility shift assays separate free from complexed probe on a gel.

For a further assay, the target named is T1, Max(L) homodimers (Homo sapiens, UniProt P61244).
T1 construct: full-length His6-tagged Max(S) and His6-tagged Max(L) were expressed and purified as previously described; His6; made in house
T1 sequence (P61244 whole entry): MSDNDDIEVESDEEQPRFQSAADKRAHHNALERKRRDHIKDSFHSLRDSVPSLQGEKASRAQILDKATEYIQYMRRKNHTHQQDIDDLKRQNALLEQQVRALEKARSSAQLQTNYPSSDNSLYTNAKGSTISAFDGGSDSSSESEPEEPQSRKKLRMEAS
The assay can be described thus: EMSA, DNA binding by Max(L) homodimers. The format is biochemical. As to conditions: recombinant Max(L).
From the text: B. Formation of a typical Michael adduct with cysteine as an example (depicted in blue) is shown. Note that nucleophilic attack by free sulfhydryl-containing molecules occurs at position 6 of the B ring. C. […] Recombinant Myc bHLH-ZIP domain (residues 353-437), and full-length Max(S) and Max(L) were used for EMSAs along with a HEX-tagged, double-stranded oligonucleotide containing a Myc binding E-box element (CACGTG). Max(S) is the 151 residue isoform that homodimerizes efficiently but only binds DNA as a heterodimer in association with Myc. The 160 residue isoform, termed Max(L), that does bind DNA as a homodimer and that closely mimics the Myc-Max(S) association was used as a control. D. Graphical representation of EMSA results from triplicate assays performed as described in C.
as §3

Assay [4] deals with NCI-60 cell line collection. Kind of assay: NCI-60 cell line screen. It is filed as cell-based.
Setting [5] is: 3 days, Cell Titer Glo, read-out: mean IC50 over myeloma cell lines.
Setting [6] is: EMSA, recombinant Myc bHLH-ZIP and Max(S), read-out: IC50, DNA binding by Myc-Max(S) heterodimers.

By IC50 is commonly meant the midpoint of a concentration-inhibition curve. Turning to `CCc1ccc(C=C2SC(=S)NC2=O)cc1` [10058-F4, [Z,E]-5-[4-ethylbenzylidine]-2-thioxothiazolidin-4-one], in the assay with primary myeloma explants, the “sensitivity of primary myeloma cells” value was “the majority were sensitive”. In addition, the N-Myc protein level entry in assay [1] is “declined”. For the same molecule, the IC50 in the assay with human myeloma cell lines (setting [5]) was determined as 21.8 µM. Further, the “differential susceptibilities among myeloma cell lines” value in the assay with human myeloma cell lines is reported as 3-4 fold.

With `CC1=C(O)C(=O)C=C2C1=CC=C1[C@@]2(C)CC[C@@]2(C)[C@@H]3C[C@](C)(C(=O)O)CC[C@]3(C)CC[C@]12C` [Celastrol, celastrol, reference compound], the N-Myc protein level result in assay [1] is reported as “declined”. Moreover, the IC50 is 0.09 ± 0.02 µM in assay [2], 0.46 ± 0.06 µM in assay [3], 67 ± 2 µM at Myc-Max(S) heterodimers and over 140 µM on Max(L) homodimers.

As to `Cc1sc2c(c1C)C(c1ccc(Cl)cc1)=N[C@@H](CC(=O)OC(C)(C)C)c1nnc(C)n1-2` [JQ1], the “sensitivity of primary myeloma cells” value in the assay with primary myeloma explants is on record as “resistant”. Moreover, the “effect against primary myelomas” value with primary myeloma explants (even at concentrations exceeding 10-20 μM) is given as “virtually without effect”. Further, the IC50 in the assay on human myeloma cell lines (setting [5]) worked out at 0.25 µM; in the assay with human myeloma cell lines (3 days, U266 excluded, read-out: mean IC50 over myeloma cell lines disregarding U266) it was 0.25 µM. Moreover, in the assay on human myeloma cell lines (U266 excluded), the “fold lower mean IC50 than SBI-0061739” value is recorded as under 2 fold. Also, the “differential susceptibilities among myeloma cell lines” value with human myeloma cell lines came to 20 fold. Moreover, the “factor by which JQ1 is more effective than 10058-F4” value with human myeloma cell lines (mean IC50s) is listed as about 90.

As to `C=C(C)C1CCC2(C(=O)O)CCC3(C)C(CCC4C5(C)Cc6nccnc6C(C)(C)C5CCC43C)C12` (stereo not shown) [SBI-0061739], the IC50 is over 2 µM in assay [4] (7 of 8 cell lines, read-out: IC50 in renal cancer lines); under 2 µM in assay [4] (17 cell lines (28%), read-out: IC50 in highly sensitive NCI-60 cell lines); over 2 µM in assay [4] (all 6 lines, read-out: IC50 in ovarian cancer lines); 3.19 ± 2.28 µM in assay [2]; 0.42 µM with human myeloma cell lines (Homo sapiens, U-266, 72 h, 3 days, U266 excluded, read-out: mean IC50 over myeloma cell lines disregarding U266); under 1 µM in the assay on human myeloma cell lines (Homo sapiens, 8 of 9 cell lines, read-out: IC50 in 8 of 9 myeloma cell lines). In assay [3], this molecule registered an IC50 of 0.82 ± 0.23 µM.

For the molecule `C=C(C)C1CCC2(C(=O)O)CCC3(C)C(CCC4C5(C)Cc6nc7ccccc7nc6C(C)(C)C5CCC43C)C12` (stereo not shown) [SBI-0069272], the IC50 in assay [2] is 14.3 ± 3.2 µM; in assay [3], 10.8 ± 2.18 µM; at Myc-Max(S) heterodimers (setting [6]), 10 to 15 µM. Moreover, the “fold more potent than celastrol” value on Myc-Max(S) heterodimers was 4-6 fold.

For `CC1(C)CCC2(C(=O)O)CCC3(C)C(=CCC4C5(C)CCC(=O)C(C)(C)C5CCC43C)C2C1` (stereo not shown) [SBI-0640599], the IC50 in assay [2] was 14.2 ± 3.7 µM; in assay [3], 12 ± 1.28 µM; on Myc-Max(S) heterodimers (setting [6]) it was 10 to 15 µM. Besides, the “fold more potent than celastrol” value on Myc-Max(S) heterodimers was 4-6 fold.

On to `C=C(C)C1CCC2(C(=O)O)CCC3(C)C(CCC4C5(C)CCC(=O)C(C)(C)C5CCC43C)C12` (stereo not shown) [SBI-0640601], for which the figures for the concentration for half-maximal inhibition (IC50) (in assay [2]; in assay [3]; at Myc-Max(S) heterodimers (setting [6])) were 6.36 ± 1.25 µM, 13.2 ± 1.74 µM and 10 to 15 µM, respectively.
